Measured values published in patent US20090117154A1, “SYNTHETIC POLYVALENT CARBOHYDRATES AS COMPONENTS OF MICROBICIDES” (priority 2005, published 2009).

Target: T1, DC-SIGN (Homo sapiens, UniProt Q9NNX6)
T1 construct: made in house
Assay: Inhibition of the binding of soluble DC-SIGN to immobilized HIV-1 Bal gp120 (plate ELISA)
Conditions: soluble DC-SIGN/mAb complex, gp120 captured on D7324 plate; preliminary assay; FIG. 3
Method: Preliminary assays were conducted on the inhibition of the synthetic polyvalent compounds against the binding between HIV-1 gp120 and DC-SIGN. Specifically, plates were coated with 5 ug/mL D7324 anti-gp120 capture antibody, in 1×PBS O/N at RT. Blocking buffer was 5% BSA in 1×TBST+1 mM CaCL2, assay/dilution buffer was 2% BSA in 1×TBST+1 mM CaCL2 and wash buffer was 1×TBST+1 mM CaCL2 (4 washes, 200 uL per well). Gp120 (CHOK1, uQuant) was captured on the D7324 plate at saturation, 500 ng/mL in assay buffer for 2 hour at RT. sDC-SIGN supernatant (Nov. 6, 2004) was supplemented with 1 mM CaCL2 and pre-complexed with 3 ug/mL anti-DC-SIGN mAb (120507, Sigma) for 1 hour at RT. Mannose products were titered 1:2 in assay buffer (Starts 1:4 in column 2), sDC-SIGN/mAb complexes were added to the titered mannose at about 1:5 (155 uL mannose+45 uL sDC-SIGN/mAb) (no sDC-SIGN in column 12), sDC-SIGN/mAb complexes mixed with mannose compounds were allowed to bind to the Gp120 plate for 1 hour at RT. Any bound sDC-SIGN/mAb complexes were detected with goat anti-mouse-IgG-HRP (Axcell) 1:2000 in assay buffer, absorbed with 2% sheep serum.

T1 sequence (Q9NNX6 59-404): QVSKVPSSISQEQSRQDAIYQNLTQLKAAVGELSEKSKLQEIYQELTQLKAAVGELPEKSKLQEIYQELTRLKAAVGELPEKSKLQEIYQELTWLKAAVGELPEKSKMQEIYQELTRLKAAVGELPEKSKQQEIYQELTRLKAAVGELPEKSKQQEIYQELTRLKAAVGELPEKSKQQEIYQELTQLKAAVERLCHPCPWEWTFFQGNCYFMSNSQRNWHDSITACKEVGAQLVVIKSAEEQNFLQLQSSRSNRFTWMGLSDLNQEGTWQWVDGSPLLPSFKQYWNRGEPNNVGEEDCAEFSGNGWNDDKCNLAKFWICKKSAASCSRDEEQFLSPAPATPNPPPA

## CC(=O)N[C@@H]1[C@@H](O)[C@H](O[C@@H]2O[C@H](CO)[C@@H](O[C@@H]3O[C@H](CO[C@H]4O[C@H](CO[C@H]5O[C@H](CO)[C@@H](O)[C@H](O)[C@@H]5O[C@H]5O[C@H](CO)[C@@H](O)[C@H](O)[C@@H]5O)[C@@H](O)[C@H](O[C@H]5O[C@H](CO)[C@@H](O)[C@H](O)[C@@H]5O[C@H]5O[C@H](CO)[C@@H](O)[C@H](O)[C@@H]5O)[C@@H]4O)[C@@H](O)[C@H](O[C@H]4O[C@H](CO)[C@@H](O)[C@H](O)[C@@H]4O[C@H]4O[C@H](CO)[C@@H](O)[C@H](O)[C@@H]4O[C@H]4O[C@H](CO)[C@@H](O)[C@H](O)[C@@H]4O)[C@@H]3O)[C@H](O)[C@H]2NC(C)=O)[C@@H](CO)O[C@H]1NC(=O)C[C@H](N)C(=O)O [Man9, Man9GlcNAc2Asn]
  inhibition of the binding of soluble DC-SIGN to immobilized gp120 (in words): much better than the disaccharide and monosaccharide in inhibition
